Data published in US20230140983A1, “PYRIDAZINE DERIVATIVES FOR MODULATING NUCLEIC ACID SPLICING” (REMIX THERAPEUTICS INC., priority 2020, published 2023).
Structures can show the parent of a compound that is named as a salt. Where two headings read alike, the source gives them in different places.

Columns and labels:
Format in all cases: cell-based
HTT [1] = experiment: Splicing assay (RT-qPCR on cell lysates) monitoring HTT splice variants: AJ and CJ mRNA; conditions: concentration having 50% response
Procedure: Example 69: Exemplary Splicing Assay for Monitoring Expression Levels of Splice Variants
(§1) To set up 10 uL RT-qPCR reactions, cell lysates were transferred to 384-well qPCR plates containing the master mix according to the table below. The plates were sealed, gently vortexed, and spun down before the run. The volumes were adjusted accordingly in some instances where the reaction was carried in 20 uL. The table below summarizes the components of the RT-qPCR reactions:
(§2) The RT-qPCR reaction was performed using a QuantStudio (ThermoFisher) under the following fast cycling conditions. All samples and standards were analyzed at least in duplicate. In some instances, bulk room temperature (RT) step of 5-10 minutes was completed for all plates before proceeding with qPCR. The table below summarizes the PCR cycle:
(§3) The data analysis was performed by first determining the ΔCt vs the housekeeper gene. This ΔCt was then normalized against the DMSO control (ΔΔCt) and converted to RQ (relative quantification) using the 2^(−ΔΔCt) equation. The RQ were then converted to a percentage response by arbitrarily setting an assay window of 3.5 ΔCt for HTT-CJ and an assay window of 9 ΔCt for HTT-AJ. […] The percentage response was then fitted to the 4 parametric logistic equation to evaluate the concentration dependence of compound treatment. The increase in AJ mRNA is reported as AC50 (compound concentration having 50% response in AJ increase) while the decrease in CJ mRNA levels is reported as IC50 (compound concentration having 50% response in CJ decrease).

Target C = experiment: Gene panel canonical junction qPCR assay, Target C CJ mRNA; conditions: Table 9, CJ mRNA decrease, read-out: Target C IC50 (decrease in CJ mRNA levels)
Procedure: as §1, §2, §3
(§4) Additional studies were carried out for a larger panel of genes using the protocol provided above. The junction between flanking upstream and downstream exons was used to design canonical junction qPCR assays. At least one of the forward primer, reverse primer or the CY5-labeled 5′ nuclease probe (with 3′ quencher such as ZEN/Iowa Black FQ) was designed to overlap with the exon junction to capture the CJ mRNA transcript. BLAST was used to confirm the specificity of the probeset and parameters such as melting temperature, GC content, amplicon size, and primer dimer formation are considered during their design. Data for the decrease in CJ mRNA levels for three exemplary genes (HTT, SMN2, and Target C) analyzed in this panel are reported as IC50 (compound concentration having 50% response in CJ decrease).

HTT [2] = experiment: Gene panel canonical junction qPCR assay, HTT CJ mRNA; conditions: Table 9, CJ mRNA decrease, read-out: HTT IC50 (decrease in CJ mRNA levels)
Procedure: as §1, §2, §3, §4

SMN2 = experiment: Gene panel canonical junction qPCR assay, SMN2 CJ mRNA; conditions: Table 9, CJ mRNA decrease, read-out: SMN2 IC50 (decrease in CJ mRNA levels)
Procedure: as §1, §2, §3, §4

[3] = Table 7, decrease in CJ mRNA, read-out: HTT CJ AC50
[4] = Table 7, increase in AJ mRNA, read-out: HTT AJ AC50
[5] = Table 8, decrease in CJ mRNA, read-out: HTT CJ AC50
[6] = Table 8, increase in AJ mRNA, read-out: HTT AJ AC50

Row | SMILES | IC50 (Target C) [µM] | IC50 (HTT [2]) [µM] | IC50 (SMN2) [µM] | AC50 (HTT [1]; [3]) [µM] | AC50 (HTT [1]; [4]) [µM] | AC50 (HTT [1]; [5]) [µM] | AC50 (HTT [1]; [6]) [µM]
1 | CN(c1ccc(-c2ccc(-n3cccn3)c3nc[nH]c23)nn1)[C@@H]1C[C@H]2CC[C@@H](C1)N2 [Compound 170] | > 10 | 1 to 10 | 0.1 to 1 | 0.5 to 5 | > 5 | 1 to 10 | 1 to 10
2 | CN(c1ccc(-c2ccc(-c3ccn(C)c(=O)c3)c3scnc23)nn1)C1CC(C)(C)NC(C)(C)C1 [Compound 174] | > 10 | 1 to 10 | 0.1 to 1 |  |  | 1 to 10 | 1 to 10
3 | CN(c1ccc(-c2ccc(-c3cnn(C)c3)c3scnc23)nn1)C1CC(C)(C)NC(C)(C)C1 [Compound 175, N-methyl-6-[7-(1-methylpyrazol-4-yl)-1,3-benzothiazol-4-yl]-N-(2,2,6,6-tetramethylpiperidin-4-yl)pyridazin-3-amine] | > 10 | > 10 | 1 to 10 |  |  | > 10 | 1 to 10
4 | Cc1[nH]ncc1-c1ccc(-c2ccc(N(C)C3CC(C)(C)NC(C)(C)C3)nn2)c2ncsc12 [Compound 176] | > 10 | > 10 | > 10 |  |  | > 10 | 1 to 10
5 | COc1cc(-c2ccc(-c3ccc(N(C)C4CC(C)(C)NC(C)(C)C4)nn3)c3ncsc23)ccn1 [Compound 177] | > 10 | > 10 | 1 to 10 |  |  | > 10 | > 10
6 | CN(c1ccc(-c2ccc(-c3ccc(=O)n(C)c3)c3scnc23)nn1)C1CC(C)(C)NC(C)(C)C1 [Compound 178] | > 10 | > 10 | > 10 |  |  | > 10 | > 10
7 | CN(c1ccc(-c2ccc(-c3cnc(=O)[nH]c3)c3scnc23)nn1)C1CC(C)(C)NC(C)(C)C1 [Compound 179] | 0.1 to 1 | 0.1 to 1 | 0.1 to 1 |  |  | 0.1 to 1 | 0.1 to 1
8 | CN(c1ccc(-c2ccc(-c3ccc(=O)[nH]c3)c3scnc23)nn1)C1CC(C)(C)NC(C)(C)C1 [Compound 180] | 0.1 to 1 | 0.1 to 1 | 0.1 to 1 |  |  | 0.1 to 1 | 0.1 to 1
9 | CC1(C)CC(Oc2ccc(-c3ccc(-c4cn[nH]c4)c4ncsc34)nn2)CC(C)(C)N1 [Compound 181] | > 10 | > 10 | < 0.1 | > 5 | > 5 | > 10 | > 10
10 | CC1(C)CC(Oc2ccc(-c3ccc(-c4cn[nH]c4)c4ncsc34)nn2)CCN1 (centres unmarked) [Compound 182] | 1 to 10 | 1 to 10 | 0.1 to 1 | < 0.5 | 0.5 to 5 | 1 to 10 | 1 to 10
11 | c1nc2c(-c3cn[nH]c3)ccc(-c3ccc(OC4CCNCC4)nn3)c2s1 [Compound 183] | 0.1 to 1 | 0.1 to 1 | 0.1 to 1 | > 5 | > 5 | 0.1 to 1 | 0.1 to 1
12 | c1nc2c(-c3cn[nH]c3)ccc(-c3ccc(O[C@@H]4C[C@H]5CC[C@@H](C4)N5)nn3)c2s1 [Compound 184] | 0.1 to 1 | 0.1 to 1 | < 0.1 | < 0.5 | 0.5 to 5 | 0.1 to 1 | < 0.1
13 | CN(c1ccc(-c2ccc(-c3cnn(C)c(=O)c3)c3scnc23)nn1)C1CC(C)(C)NC(C)(C)C1 [Compound 211] | 0.1 to 1 | 0.1 to 1 | 0.1 to 1 |  |  |  | 

Continued, in another order:

Row | IC50 (Target C) [µM] | IC50 (HTT [2]) [µM] | IC50 (SMN2) [µM] | SMILES | AC50 (HTT [1]; [3]) [µM] | AC50 (HTT [1]; [4]) [µM] | AC50 (HTT [1]; [5]) [µM] | AC50 (HTT [1]; [6]) [µM]
14 | > 10 | > 10 | 0.1 to 1 | c1nc2c(-c3cn[nH]c3)ccc(-c3ccc(N4CCNCC4)nn3)c2s1 [Compound 185] | > 5 | > 5 | > 10 | 1 to 10
15 | 0.1 to 1 | < 0.1 | < 0.1 | CC1(C)CC(Nc2ccc(-c3ccc(-c4cn[nH]c4)c4ncsc34)nn2)CC(C)(C)N1 [Compound 186] | < 0.5 | < 0.5 | < 0.1 | < 0.1
16 | > 10 | > 10 | 1 to 10 | c1nc2c(-c3cn[nH]c3)ccc(-c3ccc(N4CC5(CCCNC5)C4)nn3)c2s1 [Compound 187, 7-(6-{2,6-diazaspiro [3.5]nonan-2-yl}pyridazin-3-yl)-4-(1H-pyrazol-4-yl)-1,3-benzothiazole] | > 5 | > 5 | > 10 | > 10
17 | > 10 | > 10 | > 10 | c1nc2c(-c3cn[nH]c3)ccc(-c3ccc(N4CCC5(CC4)CNC5)nn3)c2s1 [Compound 188] | > 5 | > 5 | > 10 | > 10
18 | > 10 | > 10 | > 10 | c1nc2c(-c3cn[nH]c3)ccc(-c3ccc(N4CCCC5(CNC5)C4)nn3)c2s1 [Compound 189] |  |  | > 10 | > 10
19 | > 10 | > 10 | > 10 | c1nc2c(-c3cn[nH]c3)ccc(-c3ccc(N4CCC5(CCNCC5)C4)nn3)c2s1 [Compound 190] |  |  | > 10 | > 10
20 | > 10 | > 10 | 1 to 10 | c1nc2c(-c3cn[nH]c3)ccc(-c3ccc(N4CCC5(CCCNC5)C4)nn3)c2s1 (centres unmarked) [Compound 191] |  |  | > 10 | > 10
21 | > 10 | > 10 | > 10 | c1nc2c(-c3cn[nH]c3)ccc(-c3ccc(N4CCC5(CCNC5)CC4)nn3)c2s1 [Compound 192] |  |  | > 10 | > 10
22 | > 10 | > 10 | > 10 | c1nc2c(-c3cn[nH]c3)ccc(-c3ccc(N4CCCC5(CCNC5)C4)nn3)c2s1 (centres unmarked) [Compound 193] |  |  | > 10 | > 10
23 | > 10 | 1 to 10 | 0.1 to 1 | c1nc2c(-c3cn[nH]c3)ccc(-c3ccc(N4C[C@H]5CNC[C@H]5C4)nn3)c2s1 [Compound 194, 7-{6-[(exo)-hexahydro-1H-pyrrolo[3,4-c]pyrrol-2-yl]pyridazin-3-yl}-4-(1H-pyrazol-4-yl)-1,3-benzothiazole hydrochloride] |  |  | 1 to 10 | > 10
24 | > 10 | > 10 | > 10 | c1nc2c(-c3cn[nH]c3)ccc(-c3ccc(NC4CNC4)nn3)c2s1 [Compound 196] |  |  | > 10 | > 10
25 | > 10 | 1 to 10 | 1 to 10 | c1nc2c(-c3cn[nH]c3)ccc(-c3ccc(N4CC5(CCNCC5)C4)nn3)c2s1 [Compound 197] |  |  | 1 to 10 | 1 to 10
26 | > 10 | > 10 | 0.1 to 1 | CN1C[C@@H]2CN(c3ccc(-c4ccc(-c5cn[nH]c5)c5ncsc45)nn3)C[C@@H]2C1 [Compound 198, 7-{6-[(exo)-5-methyl-hexahydropyrrolo[3,4-c]pyrrol-2-yl]pyridazin-3-yl}-4-(1H-pyrazol-4-yl)-1,3-benzothiazole hydrochloride] |  |  | > 10 | > 10
